Assay results: patent US11851419B2, “GLP-1R modulating compounds” (Gilead Sciences, Inc., priority 2020, dated 2023)

Columns and labels:
[1] = target: T1, GLP-1R (Homo sapiens, UniProt P43220); test: GLP-1R Activation - cAMP Assay 2 (cAMP increase in CHO cells stably expressing GLP-1R, pre-spotted agonists); format: cell-based; settings: assay buffer or 100% Human Plasma (not given), 30 minutes at 37° C.
Description: GLP-1R Activation—cAMP Assay 2
GLP-1R activation by small molecule agonists is quantified by measuring cAMP increase in CHO cells stably expressing GLP-1R (MultiSpan product #C1267-1a). 50 nL of agonists are pre-spotted in a 10 point dose response onto 384-well plate (Corning product #CL3826) using the Labcyte Echo System. The cells are harvested and plated in assay buffer (HBSS (Corning product #21-023-CV) with 20 mM Hepes (Gibco product #15630-080) and 0.1% BSA (Rockland Immunochemicals product #BSA-1000)) or 100% Human Plasma (Innovative Research product #50-643-396) at 1,000 cells/well, 10 µL/well, onto the pre-spotted plates. The cells are then incubated for 30 minutes at 37° C., 5% CO2. cAMP concentration increase is then detected using Cisbio's cAMP Gs Dynamic Kit (product #62AM4PEC) according to the manufacturer's protocol. The response is plotted against the log of the agonist concentration and fitted to a sigmoidal equation to determine the EC50.

[2] = target: T1, GLP-1R; test: GLP-1R Activation - cAMP Assay 1 (cAMP increase in CHO cells stably expressing GLP-1R); format: cell-based; settings: 10 point dose response, 30 minutes incubation at 37° C., cAMP Gs Dynamic Kit
Description: GLP-1R Activation—cAMP Assay 1
GLP-1R activation by a compound of the present disclosure was quantified by measuring cAMP increase in CHO cells stably expressing GLP-1R (MultiSpan product #C1267-1a). The cells were harvested and plated in growth medium (DMEM/F-12 (Corning product #10-090-CV) supplemented with 10% FBS (HyClone product #SH30071-03), penicillin/streptomycin (Corning product #30-002CI) and 10 µg/ml puromycin (Gibco product #A11138-03)) at 1,000 cells/well in a 384-well plate (Greiner product #781080). The cells were then incubated overnight at 37° C., 5% CO2. The next day, the medium was removed and the cells were washed with DPBS (Corning product #21-031-CM) before adding the assay medium (HBSS, Corning product #21-023-CV) with 20 mM Hepes (Gibco product #15630-080) and 0. 1% BSA (Rockland Immunochemicals product #BSA-1000)). Following the medium change, the cells were incubated for 1 hour at 37° C., 5% CO2. The tested GLP-1 compound was added to the cells in a 10 point dose response followed by a 30 minutes incubation at 37° C., 5% CO2. cAMP concentration increase was then detected using Cisbio's cAMP Gs Dynamic Kit (product #62AM4PEC) according to the manufacturer's protocol. The response was plotted against the log of the agonist concentration and fitted to a sigmoidal equation to determine the EC50.

T1 sequence (P43220 24-463): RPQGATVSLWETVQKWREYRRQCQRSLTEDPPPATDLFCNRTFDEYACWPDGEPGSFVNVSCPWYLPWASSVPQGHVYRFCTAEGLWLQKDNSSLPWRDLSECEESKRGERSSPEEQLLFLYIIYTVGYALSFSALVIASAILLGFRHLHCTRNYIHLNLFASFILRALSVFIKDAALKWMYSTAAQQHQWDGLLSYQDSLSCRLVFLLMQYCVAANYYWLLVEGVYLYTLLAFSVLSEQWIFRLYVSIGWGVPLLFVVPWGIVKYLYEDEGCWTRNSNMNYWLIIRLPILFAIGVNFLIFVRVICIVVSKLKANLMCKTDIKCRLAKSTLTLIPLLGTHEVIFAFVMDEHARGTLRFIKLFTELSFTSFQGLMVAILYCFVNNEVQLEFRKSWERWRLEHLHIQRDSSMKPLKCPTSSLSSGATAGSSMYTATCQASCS

SMILES | EC50 [1] | EC50 [2]
COCCn1c(CN2CCN(c3cccc(OCc4ccc(C#N)cc4F)n3)CC2)nc2c(F)c(Nc3ccccc3)c(C(=O)O)cc21 [Example 3, 2-((4-(6-((4-cyano-2-fluorobenzyl)oxy)pyridin-2-yl)piperazin-1-yl)methyl)-4-fluoro-1-(2-methoxyethyl)-5-(phenylamino)-1H-benzo[d]imidazole-6-carboxylic acid] | 1.9 nM | 
Cn1ccc(-c2cc(C(=O)O)cc3c2nc(CN2CCC(c4ccnc(OCc5ccc(C#N)cc5F)n4)CC2)n3C[C@@H]2CCO2)n1 [Example 4, (S)-2-((4-(2-((4-cyano-2-fluorobenzyl)oxy)pyrimidin-4-yl)piperidin-1-yl)methyl)-4-(1-methyl-1H-pyrazol-3-yl)-1-(oxetan-2-ylmethyl)-1H-benzo[d]imidazole-6-carboxylic Acid] | 1.2 nM | 
N#Cc1ccc(COc2cccc(C3CCN(Cc4nc5c(-c6ccccn6)cc(C(=O)O)cc5n4C[C@@H]4CCO4)CC3)n2)c(F)c1 [Example 5, Methyl 2-[[4-[6-[(4-cyano-2-fluoro-phenyl)methoxy]-2-pyridyl]-1-piperidyl]methyl]-3-[[(2S)-oxetan-2-yl]methyl]-7-(2-pyridyl)benzimidazole-5-carboxylic Acid] | 9.8 nM | 
CC(C)(O)C#Cc1cc(C(=O)O)cc2c1nc(CN1CCN(c3cccc(OCc4ccc(C#N)cc4F)n3)CC1)n2C[C@@H]1CCO1 [Example 11, 2-[[4-[6-[(4-cyano-2-fluoro-phenyl)methoxy]-2-pyridyl]piperazin-1-yl]methyl]-7-(3-hydroxy-3-methyl-but-1-ynyl)-3-[[(2S)-oxetan-2-yl]methyl]benzimidazole-5-carboxylic Acid] | 1.7 nM | 
CC(C)(O)C#Cc1cc(C(=O)O)cc2c1nc(CN1CCC(c3cccc(OCc4ccc(C#N)cc4F)n3)CC1)n2C[C@@H]1CCO1 [Example 12] | 0.81 nM | 
COCCn1c(CN2CCC(c3cccc(OCc4ccc(C#N)cc4F)n3)CC2)nc2c(F)cc(C(=O)O)cc21 [Example 14, 2-[[4-[6-[(4-cyano-2-fluoro-phenyl)methoxy]-2-pyridyl]-1-piperidyl]methyl]-7-fluoro-3-(2-methoxyethyl)benzimidazole-5-carboxylic Acid] |  | 1.04 nM
CC(C)(O)C#Cc1cc2nc(CN3CCC(c4cccc(OCc5ccc(C#N)cc5F)n4)CC3)n(C[C@@H]3CCO3)c2cc1C(=O)O [Example 16, (S)-2-((4-(6-((4-cyano-2-fluorobenzyl)oxy)pyridin-2-yl)piperidin-1-yl)methyl)-5-(3-hydroxy-3-methylbut-1-yn-1-yl)-1-(oxetan-2-ylmethyl)-1H-benzo[d]imidazole-6-carboxylic Acid] | 28.8 nM | 
Cn1ccc(-c2cc(C(=O)O)cc3c2nc(CN2CCN(c4cccc(OCc5ccc(C#N)cc5F)n4)CC2)n3C[C@@H]2CCO2)n1 [Example 19, 2-[[4-[6-[(4-cyano-2-fluoro-phenyl)methoxy]-2-pyridyl]piperazin-1-yl]methyl]-7-(1-methylpyrazol-3-yl)-3-[[(2S)-oxetan-2-yl]methyl]benzimidazole-5-carboxylic Acid] | 0.3 nM | 
CC(C)(C)OC(=O)Nc1cc2nc(CN3CCC(c4cccc(OCc5ccc(C#N)cc5F)n4)CC3)n(C[C@@H]3CCO3)c2cc1C(=O)O [Example 24, 6-(tert-butoxycarbonylamino)-2-[[4-[6-[(4-cyano-2-fluoro-phenyl)methoxy]-2-pyridyl]-1-piperidyl]methyl]-3-[[(2S)-oxetan-2-yl]methyl]benzimidazole-5-carboxylic Acid] | 0.51 nM | 
Cn1ccc(-c2cc3nc(CN4CCC(c5cccc(OCc6ccc(C#N)cc6F)n5)CC4)n(C[C@@H]4CCO4)c3cc2C(=O)O)n1 [Example 30, 2-[[4-[6-[(4-cyano-2-fluoro-phenyl)methoxy]-2-pyridyl]-1-piperidyl]methyl]-6-(1-methylpyrazol-3-yl)-3-[[(2S)-oxetan-2-yl]methyl]benzimidazole-5-carboxylic Acid] | 52.2 nM | 
COCCn1c(C[C@H]2CC[C@@H](c3cccc(OCc4ccc(C#N)cc4F)n3)CC2)nc2c(-c3ccn(C)n3)cc(C(=O)O)cc21 [Example 31, 2-(((1s,4s)-4-(6-((4-cyano-2-fluorobenzyl)oxy)pyridin-2-yl)cyclohexyl)methyl)-1-(2-methoxyethyl)-4-(1-methyl-1H-pyrazol-3-yl)-1H-benzo[d]imidazole-6-carboxylic Acid] | 134 nM | 
COCCn1c(C[C@H]2CC[C@H](c3cccc(OCc4ccc(C#N)cc4F)n3)CC2)nc2c(-c3ccn(C)n3)cc(C(=O)O)cc21 [Example 32, 2-(((1r,4r)-4-(6-((4-cyano-2-fluorobenzyl)oxy)pyridin-2-yl)cyclohexyl)methyl)-1-(2-methoxyethyl)-4-(1-methyl-1H-pyrazol-3-yl)-1H-benzo[d]imidazole-6-carboxylic Acid] | 10.6 nM | 

Other lines, results leading:

EC50 [1] | EC50 [2] | SMILES
15.1 nM |  | COCCn1c(CN2CCC(c3cccc(OCc4ccc(C#N)cc4F)n3)CC2)nc2c(F)c(Nc3ccccc3)c(C(=O)O)cc21 [Example 1, 2-((4-(6-((4-cyano-2-fluorobenzyl)oxy)pyridin-2-yl)piperidin-1-yl)methyl)-4-fluoro-1-(2-methoxyethyl)-5-(phenylamino)-1H-benzo[d]imidazole-6-carboxylic acid]
175 nM |  | COCCn1c(CN2CCC(c3cccc(OCc4ccc(C(N)=O)cc4F)n3)CC2)nc2c(F)c(Nc3ccccc3)c(C(=O)O)cc21 [Example 2, 2-((4-(6-((4-carbamoyl-2-fluorobenzyl)oxy)pyridin-2-yl)piperidin-1-yl)methyl)-4-fluoro-1-(2-methoxyethyl)-5-(phenylamino)-1H-benzo[d]imidazole-6-carboxylic Acid]
2.6 nM |  | N#Cc1ccc(COc2cccc(N3CCN(Cc4nc5c(-c6ccccn6)cc(C(=O)O)cc5n4C[C@@H]4CCO4)CC3)n2)c(F)c1 [Example 6]
31.9 nM |  | CC(C)(O)C#Cc1cc(C(=O)O)cc2c1nc(CN1CCN(c3cccc(OCc4ccc(C(N)=O)cc4F)n3)CC1)n2C[C@@H]1CCO1 [Example 13, 2-[[4-[6-[(4-carbamoyl-2-fluoro-phenyl)methoxy]-2-pyridyl]piperazin-1-yl]methyl]-7-(3-hydroxy-3-methyl-but-1-ynyl)-3-[[(2S)-oxetan-2-yl]methyl]benzimidazole-5-carboxylic Acid]
 | 0.24 nM | CC(C)(C#N)Cn1c(CN2CCC(c3cccc(OCc4ccc(C#N)cc4F)n3)CC2)nc2c(F)cc(C(=O)O)cc21 [Example 15]
13.3 nM |  | Cn1cc(-c2cc3nc(CN4CCC(c5cccc(OCc6ccc(C#N)cc6F)n5)CC4)n(C[C@@H]4CCO4)c3cc2C(=O)O)cn1 [Example 17, (S)-2-((4-(6-((4-cyano-2-fluorobenzyl)oxy)pyridin-2-yl)piperidin-1-yl)methyl)-5-(1-methyl-1H-pyrazol-4-yl)-1-(oxetan-2-ylmethyl)-1H-benzo[d]imidazole-6-carboxylic Acid]
0.98 nM |  | Cn1ccc(-c2cc(C(=O)O)cc3c2nc(CN2CCC(c4cccc(OCc5ccc(C#N)cc5F)n4)CC2)n3C[C@@H]2CCO2)n1 [Example 18, 2-[[4-[6-[(4-cyano-2-fluoro-phenyl)methoxy]-2-pyridyl]-1-piperidyl]methyl]-7-(1-methylpyrazol-3-yl)-3-[[(2S)-oxetan-2-yl]methyl]benzimidazole-5-carboxylic Acid]
0.07 nM |  | N#Cc1ccc(COc2nc(C3CCN(Cc4nc5c(F)cc(C(=O)O)cc5n4C[C@@H]4CCO4)CC3)ccc2F)c(F)c1 [Example 20, 2-[[4-[6-[(4-cyano-2-fluoro-phenyl)methoxy]-5-fluoro-2-pyridyl]-1-piperidyl]methyl]-7-fluoro-3-[[(2S)-oxetan-2-yl]methyl]benzimidazole-5-carboxylic Acid]
0.038 nM |  | N#Cc1ccc(COc2cccc(C3CCN(Cc4nc5c(F)cc(C(=O)O)cc5n4C[C@@H]4CCO4)CC3)n2)c(F)c1 [Example 21]
0.22 nM |  | N#Cc1ccc(COc2nc(N3CCN(Cc4nc5c(F)cc(C(=O)O)cc5n4C[C@@H]4CCO4)CC3)ccc2F)c(F)c1 [Example 22, 2-[[4-[6-[(4-cyano-2-fluoro-phenyl)methoxy]-5-fluoro-2-pyridyl]piperazin-1-yl]methyl]-7-fluoro-3-[[(2S)-oxetan-2-yl]methyl]benzimidazole-5-carboxylic Acid]
0.031 nM |  | N#Cc1ccc(COc2cccc(N3CCN(Cc4nc5c(F)cc(C(=O)O)cc5n4C[C@@H]4CCO4)CC3)n2)c(F)c1 [Example 23]
